Assays:
CYP1A2 = CYP1A2 (Homo sapiens, UniProt P05177); experiment: CYP1A2 inhibition assay (Supersomes, fluorescent metabolite, substrate CEC); conditions: 0.0169 to […] tested, na = concentration-dependent inhibition not observed
Text: (§1) The CYP inhibition assays used microsomes (Supersomes®, Gentest Corp., Woburn, Mass.) prepared from insect cells, each expressing an individual CYP subtype (CYP1A2, CYP2A6, CYP2B6, CYP2C8, CYP2C9, CYP2C19, CYP2D6, CYP2E1 or CYP3A4) expressed from the corresponding human CYP cDNA using a baculovirus expression vector. The microsomes also incorporated supplemental cDNA-expressed human reductase and/or cytochrome b5, as these enzymes stimulate the activity of the CYPs, allowing for a reduction in the amount of enzyme required per reaction (Gentest Corp.). The assays monitored, via fluorescence detection, the formation of a fluorescent metabolite following incubation of the microsomes with a specific CYP substrate. […]
(§2) Eight inhibitor and test compound concentrations were tested using 3-fold serial dilutions. […] The amount of metabolic product formed was quantified by fluorescence detection in a fluorescence plate reader utilizing excitation and emission filters that had been optimized for the detection of each metabolite.
(§3) Data Analysis—The mean of the duplicate fluorescent signals in the presence and absence (vehicle control) of each compound was calculated and corrected for the background noise. […]

[1] = Effect of pyridoxal 5′-phosphate on fluorescence of the metabolic products of the CYP assays
Protocol: Prior to performing the CYP inhibition assays, the effect of pyridoxal 5′-phosphate on the fluorescence of the metabolic products measured in the assays was evaluated. The fluorescence of metabolite (one concentration, in duplicate) was measured in the absence (0 μM) and presence of 0.457 to 1000 μM pyridoxal 5′-phosphate. The concentrations and metabolic products measured were: 1 μM 3-cyano-7-hydroxycoumarin (CHC), 2.5 μM 7-hydroxycoumarin (7-HC), 2.5 μM 7-hydroxy-4-trifluoromethylcoumarin (HFC), 0.1 μM fluorescein, 10 μM 3-[2-(N,N-diethylamino)ethyl]-7-hydroxy-4-methylcoumarin (AHMC) and 10 μM quinolinol. The concentration of metabolite used was based on the expected maximum concentration of metabolite formed in the CYP inhibition assay (i.e. the concentration of metabolite measured following incubation substrate with the CYP subtype in the absence of an inhibitor). CHC is the fluorescent metabolite measured in the CYP1A2 and CYP2C19 assays. 7-HC is the fluorescent metabolite measured in the CYP2A6 assay, HFC is the fluorescent metabolite measured in the CYP2B6, CYP2C9, CYP2E1 and CYP3A4 (BFC as substrate) assays and fluorescein is the metabolite measured in the CYP2C8 assay. AHMC is the metabolite measured in the CYP2D6 assay and quinolinol is measured in the CYP3A4 (BQ as substrate) assay. […]

CYP2C19 = CYP2C19 (Homo sapiens, UniProt P33261); experiment: CYP2C19 inhibition assay (substrate CEC); conditions: read-out: Pyridoxal 5′-phosphate IC50, 0.0169 to […] tested, listed as pyridoxal 5′-phosphate
Text: as §1, §2, §3

Chain of CYP1A2 (P05177 whole entry): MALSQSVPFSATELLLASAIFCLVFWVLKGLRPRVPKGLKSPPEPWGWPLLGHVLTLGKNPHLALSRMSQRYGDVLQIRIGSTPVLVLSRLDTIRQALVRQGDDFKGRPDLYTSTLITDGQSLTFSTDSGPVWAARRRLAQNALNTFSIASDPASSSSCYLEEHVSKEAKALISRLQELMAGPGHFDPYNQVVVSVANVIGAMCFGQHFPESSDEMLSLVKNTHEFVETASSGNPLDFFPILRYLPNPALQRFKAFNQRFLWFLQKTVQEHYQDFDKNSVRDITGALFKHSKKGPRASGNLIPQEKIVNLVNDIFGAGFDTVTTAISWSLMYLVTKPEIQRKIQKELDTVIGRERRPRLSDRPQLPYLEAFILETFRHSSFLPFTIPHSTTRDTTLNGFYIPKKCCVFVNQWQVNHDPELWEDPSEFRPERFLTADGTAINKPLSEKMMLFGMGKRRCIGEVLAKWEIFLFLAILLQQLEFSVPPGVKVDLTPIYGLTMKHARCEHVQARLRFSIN
Chain of CYP2C19 (P33261 whole entry): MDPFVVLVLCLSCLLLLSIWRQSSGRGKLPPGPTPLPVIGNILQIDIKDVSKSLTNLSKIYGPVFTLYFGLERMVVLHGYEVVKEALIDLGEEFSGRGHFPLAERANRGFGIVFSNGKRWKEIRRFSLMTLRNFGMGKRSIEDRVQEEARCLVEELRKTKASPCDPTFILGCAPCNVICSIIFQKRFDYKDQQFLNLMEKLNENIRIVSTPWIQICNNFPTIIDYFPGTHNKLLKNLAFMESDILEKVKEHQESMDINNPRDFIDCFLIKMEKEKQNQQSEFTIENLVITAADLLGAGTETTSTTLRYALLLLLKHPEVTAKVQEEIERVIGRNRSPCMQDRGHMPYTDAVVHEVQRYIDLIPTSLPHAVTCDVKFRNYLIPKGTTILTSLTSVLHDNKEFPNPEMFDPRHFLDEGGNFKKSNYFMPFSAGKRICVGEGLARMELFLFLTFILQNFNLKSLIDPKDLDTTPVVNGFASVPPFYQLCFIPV

SMILES: Cc1ncc(COP(=O)(O)O)c(C=O)c1O [P5P, pyridoxal-5-phosphate]
- Pyridoxal 5′-phosphate IC50 (CYP1A2): did not inhibit
- concentration at which fluorescence of metabolites was significantly quenched ([1]; metabolites CHC, 7-HC, 7-HFC, AHMC and quinolinol, 0.457 to 1000 μM tested): > 37 µM
- effect on the fluorescence of fluorescein ([1]; up to 1000 μM, fluorescein is the CYP2C8 assay product): did not affect
- IC50 (CYP2C19): ~33 µM
